Assay results taken from patent US7868135B2, “Compositions of lipopeptide antibiotic derivatives and methods of use thereof” (priority 2003, dated 2011).
Starred links: 1 amine or outer side, 2 acyl side, 3 side chain; linkers in the order of their positions; H or OH if unused. Positions of bridges follow the written chain, without caps; N, C: chain ends. Non-standard residues stand in square brackets, D forms with d. Residues, ends and D or L forms follow the SMILES beside them. ξ: configuration not given here. *: point of attachment. X37 = CC(NC(=O)[C@@H](N)CCCCN)C(N[*:1])C(=O)[*:2]; Hexadecanesulfonyl = CCCCCCCCCCCCCCCCS(=O)(=O)*; ξAbu(3ξ-NHCOCH2NH2) = CC(NC(=O)CN)C(N)C(=O)O; ξAbu(βξ-NH2) = CC(N[*:3])C(N[*:1])C(=O)[*:2]; X8 = O=C(/C=C/c1ccc(N[*:1])cc1)[*:2]; ξAsp(βξ-Me) = CC(C(=O)O)C(N)C(=O)O; X1 = O=C(Cc1ccc(N[*:1])cc1)[*:2]; Myristoyl = CCCCCCCCCCCCCC(=O)*; ξAbu(3ξ-NH2) = CC(N)C(N)C(=O)O; Lauroyl = CCCCCCCCCCCC(=O)*; X19 = CCCCCCCCCCS(=O)(=O)*; 4Abz = Nc1ccc(C(=O)O)cc1; Pip = O=C(O)[CH]1CCCCN1; ξD = NC(CC(=O)O)C(=O)O; ξPip = O=C(O)C1CCCCN1; ξV = CC(C)C(N)C(=O)O; ξP = O=C(O)C1CCCN1

These compounds were tested on Staphylococcus aureus (MSSA). Conditions: 24 h.
Protocol: (“Approved Standard M7-A3”).
The antimicrobial lipopeptide derivatives described herein were tested for antimicrobial activity against Gram-positive bacteria as follows. The minimum inhibitory concentrations (MIC) of the antimicrobial lipopeptide derivatives of the invention were determined using NCCLS guidelines M7-A6 (2003) with a slight modification in that doubling serial dilutions were used to dilute the test compounds. The broth phase microdilution method was used. Isolated colonies of Staphylococcus aureus (MSSA) from an 18-24 hour blood agar plate cultures were used to inoculate cation adjusted Mueller-Hinton broth (CAMHB) supplemented with 0.625 mM calcium. […] A negative control containing media alone and a positive growth control containing bacteria with media alone were also included. MICs were determined after incubating the plates at about 37° C. for 24 hours. […] In Tables 1 to 16, R is the core cyclic peptide of amphomycin or aspartocin, which can be in the form of a β-isomer, an anhydro, a dianhydro, or any combination thereof. […] Furthermore, a person of skill in the art will appreciate that all the pounds, or groups of compounds, derived from the various combinations of and substituents shown in Tables 1 to 16, are disclosed by the present the same extent as if each compound or group of compounds was set forth individually.
Work on `CCCCCCCCCCCCCCC(=O)NC(CC(=O)O)C(=O)NC1C(=O)N2CCCCC2C(=O)NC(C(C)C(=O)O)C(=O)NC(CC(=O)O)C(=O)NCC(=O)NC(CC(=O)O)C(=O)NCC(=O)NC(C(C)NC(=O)CNC(=O)CCCCC)C(=O)NC(C(C)C)C(=O)N2CCCC2C(=O)NC1C` (stereo not shown) [Compound 81, C15-Amphomycin-9-Gly-C6] yielded an MIC of 32 µg/mL. In the case of `CCCCCCCCCCCCCCC(=O)NC(CC(=O)O)C(=O)NC1C(=O)N2CCCCC2C(=O)NC(C(C)C(=O)O)C(=O)NC(CC(=O)O)C(=O)NCC(=O)NC(CC(=O)O)C(=O)NCC(=O)NC(C(C)NC(=O)[C@H](C)N)C(=O)NC(C(C)C)C(=O)N2CCCC2C(=O)NC1C` (stereo partly shown) [Compound 82, C15-Amphomycin-9-Ala], the MIC is reported as 2 µg/mL. `CCCCCCCCCCCCCCCCNC(=O)NC(CC(=O)O)C(=O)NC1C(=O)N2CCCCC2C(=O)NC(C(C)C(=O)O)C(=O)NC(CC(=O)O)C(=O)NCC(=O)NC(CC(=O)O)C(=O)NCC(=O)NC(C(C)NC(=O)CN)C(=O)NC(C(C)C)C(=O)N2CCCC2C(=O)NC1C` (stereo not shown) [Compound 83, CH3—(CH2)15—NH—C(═O)-Amphomycin-9-Gly] showed an MIC of 2 µg/mL. `CCCCCCCCCCCCCCCCS(=O)(=O)NC(CC(=O)O)C(=O)NC1C(=O)N2CCCCC2C(=O)NC(C(C)C(=O)O)C(=O)NC(CC(=O)O)C(=O)NCC(=O)NC(CC(=O)O)C(=O)NCC(=O)NC(C(C)NC(=O)CN)C(=O)NC(C(C)C)C(=O)N2CCCC2C(=O)NC1C` (stereo not shown) [Compound 84, CH3—(CH2)15—SO2-Amphomycin-9-Gly] was tested, and the MIC was 2 to 4 µg/mL. Work on `CCCCCCCCCCCC(=O)Nc1ccc(CC(=O)NC(CC(=O)O)C(=O)NC2C(=O)N3CCCCC3C(=O)NC(C(C)C(=O)O)C(=O)NC(CC(=O)O)C(=O)NCC(=O)NC(CC(=O)O)C(=O)NCC(=O)NC(C(C)NC(=O)CN)C(=O)NC(C(C)C)C(=O)N3CCCC3C(=O)NC2C)cc1` (stereo not drawn) [Compound 86, C12-(p-Apa)-Amphomycin-9-Gly] (Lauroyl-[X1]D[ξAbu(βξ-NH2)][Pip][ξAsp(βξ-Me)]DGDG[ξAbu(3ξ-NHCOCH2NH2)]VP; lactam 3-C; configuration not given here) yielded an MIC of 0.25 µg/mL. In the case of `CCCCCCCCCCCC(=O)Nc1ccc(C(=O)NC(CC(=O)O)C(=O)NC2C(=O)N3CCCCC3C(=O)NC(C(C)C(=O)O)C(=O)NC(CC(=O)O)C(=O)NCC(=O)NC(CC(=O)O)C(=O)NCC(=O)NC(C(C)NC(=O)CN)C(=O)NC(C(C)C)C(=O)N3CCCC3C(=O)NC2C)cc1` (stereo not shown) [Compound 87, C12-PABA-Amphomycin-9-Gly], the MIC is reported as 0.25 to 0.5 µg/mL. Compound `CCCCCCCCCCCC(=O)Nc1ccc(/C=C/C(=O)NC(CC(=O)O)C(=O)NC2C(=O)N3CCCCC3C(=O)NC(C(C)C(=O)O)C(=O)NC(CC(=O)O)C(=O)NCC(=O)NC(CC(=O)O)C(=O)NCC(=O)NC(C(C)NC(=O)CN)C(=O)NC(C(C)C)C(=O)N3CCCC3C(=O)NC2C)cc1` (stereo not drawn) [Compound 89, C12-(p-Trans-Cinnamyl)-Amphomycin-9-Gly] (Lauroyl-[X8]D[ξAbu(βξ-NH2)][Pip][ξAsp(βξ-Me)]DGDG[ξAbu(3ξ-NHCOCH2NH2)]VP; lactam 3-C; configuration not given here) has an MIC of 0.5 to 1 µg/mL. In the case of `CCCCCCCCCCCCCC(=O)Nc1ccc(C(=O)NCC(=O)NC(CC(=O)O)C(=O)NC2C(=O)N3CCCCC3C(=O)NC(C(C)C(=O)O)C(=O)NC(CC(=O)O)C(=O)NCC(=O)NC(CC(=O)O)C(=O)NCC(=O)NC(C(C)NC(=O)CN)C(=O)NC(C(C)C)C(=O)N3CCCC3C(=O)NC2C)cc1` (stereo not drawn) [Compound 91, C14-PABA-Gly-Amphomycin-9-Gly] ({Myristoyl-4Abz}-GD[ξAbu(βξ-NH2)][Pip][ξAsp(βξ-Me)]DGDG[ξAbu(3ξ-NHCOCH2NH2)]VP; lactam 3-C; configuration not given here), the MIC is reported as 2 µg/mL. Compound `CCCCCCCCCCCCCCC(=O)NC(CC(=O)O)C(=O)NC1C(=O)N2CCCCC2C(=O)NC(C(C)C(=O)O)C(=O)NC(CC(=O)O)C(=O)NCC(=O)NC(CC(=O)O)C(=O)NCC(=O)NC(C(C)NC(=O)CCCCCNC(=O)CN)C(=O)NC(C(C)C)C(=O)N2CCCC2C(=O)NC1C` (stereo not shown) [Compound 93, C15-Amphomycin-9-Ahx-Gly] has an MIC of 4 µg/mL. With `CCCCCCCCCCCCCCC(=O)NC(CC(=O)O)C(=O)NC1C(=O)N2CCCCC2C(=O)NC(C(C)C(=O)O)C(=O)NC(CC(=O)O)C(=O)NCC(=O)NC(CC(=O)O)C(=O)NCC(=O)NC(C(C)NC(=O)CCCNC(=O)CCCN)C(=O)NC(C(C)C)C(=O)N2CCCC2C(=O)NC1C` (stereo not shown) [Compound 94, C15-Amphomycin-9-GABA-GABA] the MIC was 2 µg/mL. For `CCCCCCCCCCCCCCC(=O)NC(CC(=O)O)C(=O)NC1C(=O)N2CCCCC2C(=O)NC(C(C)C(=O)O)C(=O)NC(CC(=O)O)C(=O)NCC(=O)NC(CC(=O)O)C(=O)NCC(=O)NC(C(C)NC(=O)[C@@H]2CCCCN2)C(=O)NC(C(C)C)C(=O)N2CCCC2C(=O)NC1C` (stereo partly shown) [Compound 95, C15-Amphomycin-9-hPro], the MIC was 2 µg/mL. `CCCCCCCCCCCCCCC(=O)NC(CC(=O)O)C(=O)NC1C(=O)N2CCCCC2C(=O)NC(C(C)C(=O)O)C(=O)NC(CC(=O)O)C(=O)NCC(=O)NC(CC(=O)O)C(=O)NCC(=O)NC(C(C)NC(=O)[C@H]2CCCCN2)C(=O)NC(C(C)C)C(=O)N2CCCC2C(=O)NC1C` (stereo partly drawn) [Compound 96, C15-Amphomycin-9-(D-Pip)] gave an MIC of 1 µg/mL. `CCCCCCCCCCCCCCCCS(=O)(=O)NCC(=O)NC(CC(=O)O)C(=O)NC1C(=O)N2CCCCC2C(=O)NC(C(C)C(=O)O)C(=O)NC(CC(=O)O)C(=O)NCC(=O)NC(CC(=O)O)C(=O)NCC(=O)NC(C(C)N)C(=O)NC(C(C)C)C(=O)N2CCCC2C(=O)NC1C` (stereo not drawn) [Compound 99, CH3—(CH2)15—SO2-Gly-Amphomycin] (Hexadecanesulfonyl-GD[ξAbu(βξ-NH2)][Pip][ξAsp(βξ-Me)]DGDG[ξAbu(3ξ-NH2)]VP; lactam 3-C; configuration not given here) was tested, and the MIC was 0.5 to 1 µg/mL. In the case of `CCCCCCCCCCS(=O)(=O)N[C@@H](Cc1ccccc1)C(=O)NC(CC(=O)O)C(=O)NC1C(=O)N2CCCCC2C(=O)NC(C(C)C(=O)O)C(=O)NC(CC(=O)O)C(=O)NCC(=O)NC(CC(=O)O)C(=O)NCC(=O)NC(C(C)N)C(=O)NC(C(C)C)C(=O)N2CCCC2C(=O)NC1C` (stereo partly drawn) [Compound 100, CH3—(CH2)9—SO2-Phe-Amphomycin] (X19-F[ξD][ξAbu(βξ-NH2)][ξPip][ξAsp(βξ-Me)][ξD]G[ξD]G[ξAbu(3ξ-NH2)][ξV][ξP]; lactam 3-C), the MIC is reported as 4 µg/mL. For `CCCCCCCCCCS(=O)(=O)NCC(=O)NC(CC(=O)O)C(=O)NC1C(=O)N2CCCCC2C(=O)NC(C(C)C(=O)O)C(=O)NC(CC(=O)O)C(=O)NCC(=O)NC(CC(=O)O)C(=O)NCC(=O)NC(C(C)NC(=O)[C@@H](N)CCCCN)C(=O)NC(C(C)C)C(=O)N2CCCC2C(=O)NC1C` (stereo partly drawn) [Compound 101, CH3—(CH2)9—SO2-Gly-Amphomycin-9-Lys] (X19-G[ξD][ξAbu(βξ-NH2)][ξPip][ξAsp(βξ-Me)][ξD]G[ξD]G[X37][ξV][ξP]; lactam 3-C), the MIC was 32 µg/mL. `CCCCCCCCCCS(=O)(=O)NCC(=O)NC(CC(=O)O)C(=O)NC1C(=O)N2CCCCC2C(=O)NC(C(C)C(=O)O)C(=O)NC(CC(=O)O)C(=O)NCC(=O)NC(CC(=O)O)C(=O)NCC(=O)NC(C(C)NC(=O)CN)C(=O)NC(C(C)C)C(=O)N2CCCC2C(=O)NC1C` (stereo not drawn) [Compound 102, CH3—(CH2)9—SO2-Gly-Amphomycin-9-Gly] (X19-GD[ξAbu(βξ-NH2)][Pip][ξAsp(βξ-Me)]DGDG[ξAbu(3ξ-NHCOCH2NH2)]VP; lactam 3-C; configuration not given here) showed an MIC of 8 µg/mL.

Same assay, conditions: S. aureus (MSSA), CAMHB supplemented with 0.625 mM calcium, 24 hours at about 37° C.; a range = compound tested multiple times
`CCCCCCCCCCCC(=O)NC(CC(=O)O)C(=O)NC1C(=O)N2CCCCC2C(=O)NC(C(C)C(=O)O)C(=O)NC(CC(=O)O)C(=O)NCC(=O)NC(CC(=O)O)C(=O)NCC(=O)NC(C(C)NC(=O)CNC)C(=O)NC(C(C)C)C(=O)N2CCCC2C(=O)NC1C` (stereo not shown) [Compound 74, C12-Amphomycin-9-Sar] was tested, and the MIC was 74/4 μg/mL. For `CCCCCCCCCCCCCCCC(=O)NC(CC(=O)O)C(=O)NC1C(=O)N2CCCCC2C(=O)NC(C(C)C(=O)O)C(=O)NC(CC(=O)O)C(=O)NCC(=O)NC(CC(=O)O)C(=O)NCC(=O)NC(C(C)NC(=O)CNC)C(=O)NC(C(C)C)C(=O)N2CCCC2C(=O)NC1C` (stereo not shown) [Compound 75, C16-Amphomycin-9-Sar], the MIC was 75/1 μg/mL. For `CCCCCCCCCC(=O)NC(CC(=O)O)C(=O)NC1C(=O)N2CCCCC2C(=O)NC(C(C)C(=O)O)C(=O)NC(CC(=O)O)C(=O)NCC(=O)NC(CC(=O)O)C(=O)NCC(=O)NC(C(C)NC(=O)CCN)C(=O)NC(C(C)C)C(=O)N2CCCC2C(=O)NC1C` (stereo not drawn) [Compound 76, C10-Amphomycin-9-(β-Ala)], the MIC was 76/16 μg/mL. With `CCCCCCCCCC(=O)NC(CC(=O)O)C(=O)NC1C(=O)N2CCCCC2C(=O)NC(C(C)C(=O)O)C(=O)NC(CC(=O)O)C(=O)NCC(=O)NC(CC(=O)O)C(=O)NCC(=O)NC(C(C)NC(=O)CNC)C(=O)NC(C(C)C)C(=O)N2CCCC2C(=O)NC1C` (stereo not shown) [Compound 77, C10-Amphomycin-9-Sar] the MIC was 77/32 μg/mL. `CCCCCCCCCCCCCCCCC(=O)NC(CC(=O)O)C(=O)NC1C(=O)N2CCCCC2C(=O)NC(C(C)C(=O)O)C(=O)NC(CC(=O)O)C(=O)NCC(=O)NC(CC(=O)O)C(=O)NCC(=O)NC(C(C)NC(=O)CNC)C(=O)NC(C(C)C)C(=O)N2CCCC2C(=O)NC1C` (stereo not shown) [Compound 78, C17-Amphomycin-9-Sar] was tested, and the MIC was 78/1 μg/mL. For `CCCCCCCCCCCCCCCC(=O)NC(CC(=O)O)C(=O)NC1C(=O)N2CCCCC2C(=O)NC(C(C)C(=O)O)C(=O)NC(CC(=O)O)C(=O)NCC(=O)NC(CC(=O)O)C(=O)NCC(=O)NC(C(C)NC(=O)CCN)C(=O)NC(C(C)C)C(=O)N2CCCC2C(=O)NC1C` (stereo not drawn) [Compound 79, C16-Amphomycin-9-(β-Ala)], the MIC was 79/1 μg/mL.
